Source: ChEMBL document CHEMBL2429836, “Theoretical studies, synthesis, and biological activity of 1-[(4-methylphenyl)sulfonyl]-5-oxo-2,3,4,5-tetrahydro-1H-1-benzazepine-4-carbonitrile (C9) as a non-peptide antagonist of the arginine vasopressin V1a and V2 receptors” (Med Chem Res, 2013)
The source made the active and inactive calls. The calls are words filed in the database; no cut-off is given here. Numbered stars: 1 amine (or outer) side, 2 acyl side, 3 side chain; on linkers, the order of the positions; unused ones are H or OH. Bridge positions count the residues as written; N and C are the ends. Peptide text beside a SMILES is read from it. X1 = CC(C)(CC(=O)[*:1])S[*:2]

Assays:
[1] = molecular target: Vasopressin V1a receptor (Rattus norvegicus) (UniProt P30560); experiment: Antagonist activity at vasopressin V1a receptor in endothelium-denuded rat thoracic aorta assessed as inhibition of AVP-induced vascular smooth muscle contraction at 10 uM
[2] = molecular target: Vasopressin V1a receptor (Rattus norvegicus) (UniProt P30560); experiment: Antagonist activity at vasopressin V1a receptor in endothelium intact rat thoracic aorta assessed as inhibition of AVP-induced vascular smooth muscle contraction at 10 uM
Rattus norvegicus = experiment: Antidiuretic acitivity in water-loaded Wistar rat assessed as inhibition of AVP-mediated decrease in urine flow at 100 ug/kg, iv; type: functional, organism-based
[3] = molecular target: Vasopressin V1a receptor (Rattus norvegicus) (UniProt P30560); experiment: Antagonist activity at vasopressin V1a receptor in rat thoracic aorta assessed as inhibition of AVP-induced vascular smooth muscle contraction; type: tissue-based
[4] = molecular target: Vasopressin V1a receptor (Rattus norvegicus) (UniProt P30560); experiment: Antagonist activity at vasopressin V1a receptor in rat thoracic aorta assessed as inhibition of AVP-induced vascular smooth muscle contraction at 5.9 uM; type: tissue-based
[5] = molecular target: Vasopressin V1a receptor (Rattus norvegicus) (UniProt P30560); experiment: Antagonist activity at vasopressin V1a receptor in rat thoracic aorta assessed as inhibition of AVP-induced vascular smooth muscle contraction at 59 uM; type: tissue-based
[6] = molecular target: Vasopressin V1a receptor (Rattus norvegicus) (UniProt P30560); experiment: Antagonist activity at vasopressin V1a receptor in rat thoracic aorta assessed as inhibition of AVP-induced vascular smooth muscle contraction at 590 uM; type: tissue-based

Chain of Vasopressin V1a receptor (Rattus norvegicus) (P30560 whole entry, looked up): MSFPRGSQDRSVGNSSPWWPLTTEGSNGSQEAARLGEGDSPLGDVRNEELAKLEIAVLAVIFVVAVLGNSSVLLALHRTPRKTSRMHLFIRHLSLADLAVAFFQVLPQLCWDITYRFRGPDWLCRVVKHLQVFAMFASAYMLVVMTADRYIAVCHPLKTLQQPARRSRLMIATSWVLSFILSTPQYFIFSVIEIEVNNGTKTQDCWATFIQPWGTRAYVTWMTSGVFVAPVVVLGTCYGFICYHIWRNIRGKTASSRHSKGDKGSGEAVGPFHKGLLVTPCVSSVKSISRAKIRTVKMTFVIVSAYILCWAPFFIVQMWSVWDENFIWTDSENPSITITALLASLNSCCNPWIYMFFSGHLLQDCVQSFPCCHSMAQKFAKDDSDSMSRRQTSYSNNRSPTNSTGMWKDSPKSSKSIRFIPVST

| inhibition [3] | inhibition [4] | inhibition [5] | inhibition [6] | Compound | inhibition [1] | inhibition [2] | inhibition (Rattus norvegicus) |
| --- | --- | --- | --- | --- | --- | --- | --- |
|  |  |  |  | COc1ccc(C[C@@H]2NC(=O)CC(C)(C)SSC[C@@H](C(=O)N3CCC[C@H]3C(=O)N[C@@H](CCCN=C(N)N)C(=O)NCC(N)=O)NC(=O)[C@H](CC(N)=O)NC(=O)[C@H](CCC(N)=O)NC(=O)[C@H](Cc3ccccc3)NC2=O)cc1 (Y(Me)FQNCPRG-NH2; linker N-5 via X1) | Active | Active |  |
| Dose-dependent effect | 25% | 70% | Active | Cc1ccc(S(=O)(=O)N2CCC(C#N)C(=O)c3ccccc32)cc1 (configuration not stated) |  |  | Active |
